Experimental data: patent publication US11554138B2, “Bismuth(III) complexes as adjuvants in the treatment of cancer using platinum-based chemotherapy” (THE UNIVERSITY OF HONG KONG, priority 2015, dated 2023)

Columns and labels:
[1] = system: MIHA (human hepatocyte cell); assay: XTT cell proliferation assay, protection against cisplatin cytotoxicity, MIHA; assay type: cell-based
Description: MIHA cells treated with culture medium served as a control. The respective survival rate was measured by cell proliferation kit XTT. All data are in triplicates.
(§1) To evaluate the in vitro protection effect of test bismuth(III) complexes against cisplatin stress, two nontumorigenic normal human cell lines, HK-2 (human kidney proximal tubular cell) and MIHA (human hepatocyte cell) are incorporated herein for cell proliferation kit II XTT assay.
(§2) The XTT assay was carried out according to the manufacturer's instruction (Roche Diagnostics, USA). Typically, 1-2×10^4 cells per well were grown in flat-bottom 96-well plates at 37° C. for an overnight under a humidified atmosphere of 5% CO2. Cells pellets were washed with PBS and treated with bismuth(III) complexes at various concentrations (1-100 μM) for 2 hours prior to the exposure to cisplatin (10 μM and 100 μM for HK-2 and MIHA cell line, respectively) for 2 days. Cells grown under culture medium alone were used as a negative control. After a fixed incubation time, 50 μl of the XTT labeling mixture was added to each well and the cells were incubated for 2 hours. The formation of formazan dyes, produced only by metabolic active cells, was detected spectrophotometrically at 490 nm.

testicular cancer = conditions: cited from earlier work
[2] = system: HK-2 (human kidney proximal tubular cell); assay: XTT cell proliferation assay, protection against cisplatin cytotoxicity, HK-2; assay type: cell-based
Description: HK-2 cells treated with culture medium served as a control. The respective survival rate was measured by cell proliferation kit XTT. All data are in triplicates.
as §1, §2

female BALB/c mice = assay: Survival of cisplatin-treated mice (cisplatin induced nephrotoxicity); assay type: in vivo; conditions: 50 mg/kg orally Day -2, -1, 0, 2, 4; cisplatin 30 mg/kg i.p. Day 0; n=8
Description: FIG. 5 Provides survival curves of cisplatin-treated mice with pretreatment of Bi-L1, Bi-L12 and BicitZ, respectively, showing the protective role of bimusth(III) complexes on cisplatin induced nephrotoxicity. All bismuth complexes (50 mg/kg) were administered orally on Day −2, Day −1, Day 0, Day 2 and Day 4. Cisplatin (30 mg/kg) was I.P. injected on Day 0. […] (Log-rank (Mantel-Cox) test, ***P=0.0004)

[3] = highly dependent on pH and ionic strength
[4] = system: SKNLP neuroblastoma cells; assay: Cisplatin anti-tumor activity in SKNLP neuroblastoma tumor-bearing mice
Description: 0.2 Million SKNLP neuroblastoma cells transfected with luminescent plasmid were inoculated into the adrenal gland of SCID beige mice. […] Cisplatin (7.5 mg/kg) was i.p. injected at Day 0, Day 7 and Day 14. Tumor growth was monitored by luminescent of the transfected tumor cells.
SKNLP neuroblastoma cells (˜2×10^5 cells) were transfected with luminescent plasmid were inoculated into the adrenal gland of BALB/c nude mice. […] Cisplatin (7.5 mg/kg) was i.p. injected on Day 0, and Day 7. Tumor growth was monitored by luminescent of the transfected tumor cells.
To evaluate whether Bi(III) complexes affect cisplatin's in vivo anti-tumor activity, SKNLP neuroblastoma cells transfected with luminescent plasmid were implanted into mice.

Row | Compound | cells survived after exposure to cisplatin only ([1]; cisplatin 100 μM, 2 days) | overall cure rate (testicular cancer) | cells survived after exposure to cisplatin only ([2]; cisplatin 10 μM, 2 days) | increase of cell viability when co-treated with cisplatin ([1]; bismuth(III) complex 1-100 μM 2 hours prior to cisplatin 100 μM for 2 days, XTT) | survival rate of cisplatin-treated mice (Kaplan-Meier) (female BALB/c mice) | solubility of the complex in water [3] | effect on cisplatin's anti-cancer activity in tumor engrafted mice ([4]; SCID beige mice, oral 50 mg/Kg Day -1, 0 and every two days, cisplatin 7.5 mg/kg Day 0, 7, 14) | interference on cisplatin's chemotherapeutic effect ([4]; pretreatment at 100 mg/kg, cisplatin 7.5 mg/Kg, SCID beige tumor-bearing mice) | SKNLP tumor cells metastases in lung and liver (histology) ([4]; same experiments as FIG. 7 and FIG. 8, vs control and cisplatin alone) | increase of cell viability when co-treated with cisplatin ([2]; bismuth(III) complex 1-100 μM 2 hours prior to cisplatin 10 μM for 2 days, XTT)
1 | N.N.[Cl][Pt][Cl] [cisplatin, cis-[PtCl2(NH3)2], reference compound] | Less than 40% | over 90% | Less than 40% |  |  |  |  |  |  | 
2 | bismuth(III) zinc(II) citrate complex [BicitZ] |  |  |  | 28.5% | higher survival rate | over 100 mM | negligible effects | no interference | delays SKNLP tumor cells metastases | 16.7%
